The values that follow come from patent US20070004010A1, “Engineered Enzymes and Their Use for Synthesis of Thioglycosides” (THE UNIVERSITY OF BRITISH COLUMBIA, priority 2002, published 2007).

Residue numbers refer to the chain shown, from its start. In names and notes the source's numbering stands.

One assay addresses T1, Cex E127A (Cellulomonas fimi, UniProt P07986, E168A).
T1 sequence (P07986 42-484 E168A): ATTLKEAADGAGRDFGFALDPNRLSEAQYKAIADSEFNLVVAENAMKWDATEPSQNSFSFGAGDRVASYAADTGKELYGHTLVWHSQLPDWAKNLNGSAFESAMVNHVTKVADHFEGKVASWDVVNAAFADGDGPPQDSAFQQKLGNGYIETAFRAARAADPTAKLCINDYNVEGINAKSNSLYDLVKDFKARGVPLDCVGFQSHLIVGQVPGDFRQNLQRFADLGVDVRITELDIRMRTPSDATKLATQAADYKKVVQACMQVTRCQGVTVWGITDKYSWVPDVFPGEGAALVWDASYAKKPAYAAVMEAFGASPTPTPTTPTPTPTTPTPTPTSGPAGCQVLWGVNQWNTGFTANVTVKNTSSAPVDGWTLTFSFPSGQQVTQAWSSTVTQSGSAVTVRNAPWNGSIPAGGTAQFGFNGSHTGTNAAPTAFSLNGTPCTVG
As to the kind of experiment: Functional donors and acceptors for Cex E127A. In kind it is biochemical.

Assay [1] has as its target T2, Abg E171A (Agrobacterium sp., UniProt P12614, E171A). Nature of the assay: Kinetic analysis of thioglycoligase reaction (DNP release) with Abg E171A. The conditions noted are these: acceptor; donor 2,4-DNP β-D-glucopyranoside (125 mM); 30° C., 50 mM NaPi, 145 mM NaCl, pH 7.1; calculated from the highest observed rate of DNP release. In kind it is biochemical. How it is done: Kinetic analysis was performed with 2,4-DNP β-D-glucopyranoside (125 mM) as donor and with pNP 4-deoxy-4-thio-β-D-glucopyranoside as acceptor at 30° C. in 50 mM NaPi, 145 mM NaCl, pH 7.1 (FIG. 7). It has been shown previously, that the KM− value of the donor is extremely low (<1 μM), and that no donor substrate inhibition is seen. Enzymatic background hydrolysis of the donor together with acceptor substrate inhibition make it difficult to exactly determine K′M and k′cat, but it can be calculated from the highest observed rate of DNP release, that k′cat is higher than 50 min^−1.

The test system of assay [2] is Man2A E429A. As to the kind of experiment: Competition study for evaluation of relative rates of transfer to S- and O-acceptors (HPLC). In kind it is biochemical, Cellulomonas fimi. The settings on record: 6 vs pNP-Xyl, 5.5 mM each; donor DNP-Man; pH 6.8, RT; integration of HPLC peaks. The method, then: Arrows indicate the elution of the O-linked disaccharides, 10 is the S-linked disaccharide.
In order to assess the relative rates of transfer to the oxygen and sulfur nucleophiles in the case of Man 2A E429A we established a competition reaction in which equimolar amounts of pNP-Xyl and its 4-thio analogue 6 were incubated together with DNP-Man as donor and Man2A E429A (FIG. 3). When the concentration of donor was limiting (one third of the concentration of acceptors) we saw exclusive formation of the S-linked disaccharide 10 (a). However, upon addition of further donor to a final concentration twice that of the acceptors the O-linked disaccharides (indicated by arrows) were formed (b).
pNP-Xyl (5.5 mM), 6 (5.5 mM), DNP-Man (3.75 mM) and Man2A E429A (˜1 mg ml.) were incubated in phosphate buffer (50 mM, pH 6.8) for 3 h at RT. After removal of an aliquot DNP-Man was added to a final concentration of 22 mM. After 5 h at RT another aliquot was taken. The aliquots were diluted 1:3 with acetonitrile and centrifuged before applying to the HPLC. HPLC analysis was performed using a Waters 600E multisolvent delivery system with acetonitrile (A)/water (B) as mobile phase (linear gradient: 80% A→60% A in 15 min, flow: 1 ml min^−1), a Waters 2486 Dual λ Absorbance Detector (detection at 280 nm), a TOSO HAAS Amide 80 column (4.6×250 mm) and Millenium 3.20 software.

The test system of assay [3] is Man2A E429A. Nature of the assay: Control reaction with parent sugars as acceptors, DNP-Man as donor. The format is biochemical, Cellulomonas fimi. The conditions noted are these: acceptor for Man2A E429A in the presence of DNP-Man.
For assay [4], the target named is T2, Abg E171A. In kind it is biochemical. The settings on record: acceptor with Abg E171A in the presence of DNP-Glc as donor.
The nature of assay [5]: Thioglycoligase function of Cex acid/base mutant. In kind it is biochemical, Cellulomonas fimi. The conditions noted are these: mutation of the catalytic acid/base residue E127.
Assay [6] is described as follows: Saturation mutagenesis at the acid/base position (E171) of Abg: thioligase functionality. The format is biochemical, Agrobacterium sp.

T2 sequence (P12614 whole entry E171A, looked up): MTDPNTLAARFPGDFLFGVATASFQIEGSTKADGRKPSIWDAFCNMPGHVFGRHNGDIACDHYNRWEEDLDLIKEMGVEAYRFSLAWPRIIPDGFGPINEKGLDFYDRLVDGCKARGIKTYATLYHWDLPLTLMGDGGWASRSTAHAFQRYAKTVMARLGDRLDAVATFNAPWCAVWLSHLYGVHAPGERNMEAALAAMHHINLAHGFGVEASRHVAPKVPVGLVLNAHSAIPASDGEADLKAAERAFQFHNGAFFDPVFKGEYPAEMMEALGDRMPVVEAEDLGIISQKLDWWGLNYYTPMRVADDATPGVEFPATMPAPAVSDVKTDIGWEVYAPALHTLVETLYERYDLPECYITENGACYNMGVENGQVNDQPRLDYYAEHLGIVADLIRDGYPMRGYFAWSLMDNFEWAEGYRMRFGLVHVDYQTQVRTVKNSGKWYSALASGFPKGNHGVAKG

For the molecule `OC[C@H]1O[C@@H](O[C@H]2[C@H](O)[C@@H](O)C(O)O[C@@H]2CO)[C@H](O)[C@@H](O)[C@@H]1S` (stereo partly drawn) [4′-deoxy-4′-thio-cellobiose], the acceptor function result on Cex E127A was “Functional acceptors”. Take `O=[N+]([O-])c1ccc(O[C@@H]2O[C@H](CO)[C@@H](O[C@@H]3O[C@H](CO)[C@@H](O)[C@H](O)[C@H]3O)[C@H](O)[C@H]2O)c([N+](=O)[O-])c1` [DNP β-cellobioside]: the donor function result at Cex E127A is reported as “Functional donors”. In the case of `O=[N+]([O-])c1ccc(O[C@@H]2O[C@H](CO)[C@@H](S)[C@H](O)[C@H]2O)cc1` [compound 3, para-nitrophenyl 4-deoxy-4-thio-β-D-glucopyranoside], on Abg E171A [1], the “k′cat” value is listed as “higher than 50 min^−1”. Besides, on Cex E127A, the acceptor function entry is listed as “Functional acceptors”. As to `O=[N+]([O-])c1ccc(O[C@@H]2OC[C@@H](S)[C@H](O)[C@H]2O)cc1` [compound 6, p-Nitrophenyl 4-deoxy-4-thio-β-D-xylopyranoside], the “transfer to the thiosugar acceptor faster than transfer to its oxygen analogue” value with Man2A E429A [2] is “at least 100 fold”. In the case of `O=[N+]([O-])c1ccc(O[C@@H]2O[C@H](CO)[C@@H](O[C@@H]3O[C@H](CO)[C@@H](S)[C@H](O)[C@H]3O)[C@H](O)[C@H]2O)cc1` [pNP 4′-deoxy4′-thio-β-cellobioside, pNP 4′-deoxy-4′-thio-β-cellobioside], at Cex E127A, the acceptor function entry is given as “Functional acceptors” and the donor function result was “Functional donors”. As to `O=[N+]([O-])c1ccc(O[C@@H]2O[C@H](CO)[C@@H](O)[C@H](O)[C@H]2O)cc1` [pNP-Glc, para-nitrophenyl β-D-glucopyranoside], the “formation of disaccharide products” value in the assay with Man2A E429A [3] is listed as “only very slowly”. In addition, the formation of disaccharides result at Abg E171A [4] is recorded as “no formation of disaccharides”.

On to `O=[N+]([O-])c1ccc(O[C@@H]2OC[C@@H](O)[C@H](O)[C@H]2O)cc1` [pNP-Xyl, para-nitrophenyl β-D-xylopyranoside], for which the “formation of disaccharide products” value in the assay with Man2A E429A [3] is reported as “only very slowly”. The formation of disaccharides entry at Abg E171A [4] is “no formation of disaccharides”.

B1: Cex E127A: endo acting retaining β-glycosidase from Cellulomonas fimi (Cex) mutated at the catalytic acid/base residue E127 (protein, UniProt P07986 42-484, looked up, variant E127A)
Exoglucanase/xylanase: T1 sequence (P07986 42-484 E168A)
Consider B1, for which the thioglycoligase function entry in assay [5] is given as “functional thioglycoligase”.

B2: Abg E171G: acid/base position (E171) mutant of the β-glucosidase from Agrobacterium sp. (Abg) (protein, UniProt P12614 1-459, looked up, variant E171G)
Beta-glucosidase: MTDPNTLAARFPGDFLFGVATASFQIEGSTKADGRKPSIWDAFCNMPGHVFGRHNGDIACDHYNRWEEDLDLIKEMGVEAYRFSLAWPRIIPDGFGPINEKGLDFYDRLVDGCKARGIKTYATLYHWDLPLTLMGDGGWASRSTAHAFQRYAKTVMARLGDRLDAVATFNGPWCAVWLSHLYGVHAPGERNMEAALAAMHHINLAHGFGVEASRHVAPKVPVGLVLNAHSAIPASDGEADLKAAERAFQFHNGAFFDPVFKGEYPAEMMEALGDRMPVVEAEDLGIISQKLDWWGLNYYTPMRVADDATPGVEFPATMPAPAVSDVKTDIGWEVYAPALHTLVETLYERYDLPECYITENGACYNMGVENGQVNDQPRLDYYAEHLGIVADLIRDGYPMRGYFAWSLMDNFEWAEGYRMRFGLVHVDYQTQVRTVKNSGKWYSALASGFPKGNHGVAKG
Consider B2, for which the functionality as thioligase entry in assay [6] is on record as “functionality as thioligases”.

B3: E171T: acid/base position (E171) mutant of Abg (protein, UniProt P12614 1-459, looked up, variant E171T)
Beta-glucosidase: B2 Beta-glucosidase with G171T
For the molecule B3, the functionality as thioligase entry in assay [6] is reported as “functionality as thioligases”.

B4: Abg E171Q: acid/base position (E171) mutant of the β-glucosidase from Agrobacterium sp. (Abg) (protein, UniProt P12614 1-459, looked up, variant E171Q)
Beta-glucosidase: B2 Beta-glucosidase with G171Q
For B4, the functionality as thioligase result in assay [6] is recorded as “functionality as thioligases”.

B5: E171F: acid/base position (E171) mutant of Abg (protein, UniProt P12614 1-459, looked up, variant E171F)
Beta-glucosidase: B2 Beta-glucosidase with G171F
On to B5, for which, in assay [6], the functionality as thioligase result is given as “functionality as thioligases”.

B6: E171M: acid/base position (E171) mutant of Abg (protein, UniProt P12614 1-459, looked up, variant E171M)
Beta-glucosidase: B2 Beta-glucosidase with G171M
For the molecule B6, the functionality as thioligase result in assay [6] was “functionality as thioligases”.

B7: E171L: acid/base position (E171) mutant of Abg (protein, UniProt P12614 1-459, looked up, variant E171L)
Beta-glucosidase: B2 Beta-glucosidase with G171L
B7: the functionality as thioligase entry in assay [6] is recorded as “functionality as thioligases”.

B8: E171N: acid/base position (E171) mutant of Abg (protein, UniProt P12614 1-459, looked up, variant E171N)
Beta-glucosidase: B2 Beta-glucosidase with G171N
Consider B8, for which the functionality as thioligase result in assay [6] is reported as “functionality as thioligases”.

B9: E171I: acid/base position (E171) mutant of Abg (protein, UniProt P12614 1-459, looked up, variant E171I)
Beta-glucosidase: B2 Beta-glucosidase with G171I
For the molecule B9, in assay [6], the functionality as thioligase result is reported as “functionality as thioligases”.

B10: E171S: acid/base position (E171) mutant of Abg (protein, UniProt P12614 1-459, looked up, variant E171S)
Beta-glucosidase: B2 Beta-glucosidase with G171S
For B10, the functionality as thioligase entry in assay [6] is listed as “functionality as thioligases”.
